Results from article PMC4143601 (Cancer Chemotherapy and Pharmacology, 2014).
“Also recorded” adds a separate entry of the source. Like-named read-outs stand apart in the source and are kept apart here.

What was measured:
[1] = Description: Inclusion criteria included Eastern Cooperative Oncology Group performance status ≤2 and life expectancy ≥12 weeks.
(§1) The starting dose was 8 mg/m^2, and treatment cycles were 28 days. Intra-patient dose escalation was not permitted. An adaptive Bayesian logistic regression model (BLRM), guided by the escalation with overdose control (EWOC) principle, was used to guide dose escalations. The EWOC principle mandates the potential doses recommended for the next cohort and the estimated MTD have less than 25 % posterior probability of DLT in the excessive toxicity interval (33, 100 %). […] The occurrence of DLTs was evaluated during Cycle 1. A minimum of three patients were enrolled in a cohort, and the estimated MTD was continuously updated using the BLRM, and a minimum of six patients were planned to be enrolled at the MTD level. […] A minimum of 15 patients were required for the BLRM model to determine the MTD. […] Doses were individually adjusted according to body surface area measured at baseline.
(§2) Toxicity was graded according to the National Cancer Institute Common Toxicity Criteria version 3.0. […] Tumor response was assessed by computed tomography or magnetic resonance imaging, and using Response Evaluation Criteria in Solid Tumors version 1.0 for efficacy evaluations.
The DDS was used for the BLRM analyses in the determination of MTD.

[2] = Pharmacokinetics of AUY922 and its glucuronide metabolite BJP762 in blood (LC-MS/MS, non-compartmental); assay type: in vivo, human (Japanese patients with advanced solid tumors); conditions: for half-life / Tmax / AUC(0-inf) / AUC(0-t) / Cmax / clearance / Vd: human; for half-life / Tmax: blood; for Tmax: read-out: T max [median (range)]; for AUC(0-inf) / AUC(0-t) / Cmax / clearance / Vd: whole blood; for Vd: read-out: Vz
Description: Intra-patient dose escalation was not permitted. […] The occurrence of DLTs was evaluated during Cycle 1.

advanced solid tumors = assay: Tumor response, best overall response (RECIST version 1.0); assay type: in vivo, human (Japanese patients)
Description: as §1, §2

In the case of `CCNC(=O)c1noc(-c2cc(C(C)C)c(O)cc2O)c1-c1ccc(CN2CCOCC2)cc1` [AUY922, 5-[2,4-dihydroxy-5-isopropyl-phenyl]-N-ethyl-4-[4-(morpholinomethyl)phenyl]isoxazole-3-carboxamide], the “Maximum tolerated dose (MTD)” value ([1]; IV once-weekly, 8–70 mg/m^2 tested) is reported as “No MTD was determined; also recorded: the MTD was not determined; also recorded: The MTD was not established”, the “Diarrhea, AE regardless of relationship to study drug” value ([1]; human, in vivo) is reported as 65% and the “Fatigue, AE regardless of relationship to study drug” value ([1]; human, in vivo) is reported as 29%. For the same molecule, the “Nausea, AE regardless of relationship to study drug” value ([1]; human, in vivo) was 29%, the “Night blindness, AE regardless of relationship to study drug” value ([1]; human, in vivo) was 42% and the “Patients with AEs requiring dose modification or interruption” value ([1]; human, in vivo) was 48%. The “Patients with serious AEs (SAEs)” value ([1]; human, in vivo) was 26%, the “Patients who experienced DLTs” value ([1]; human, in vivo, 28 days) was 3.6% and the “Recommended Phase II dose (RP2D)” value ([1]; human, in vivo, iv) was 70 mg/m^2. The “Patients discontinued as a result of AEs related to study drug” value ([1]; in vivo) was “two patients”, the “Patients with SAEs considered to be related to the study drug” value ([1]; in vivo) was “two patients” and the “Dose proportionality of C max in blood” value ([2]; entire dose range 8–70 mg/m^2) was “generally increased in a dose-proportional manner; also recorded: increased generally in a dose-proportional manner”. For the same molecule, the half-life ([2]; intravenous, 8 mg/m2) was 64 h, the half-life ([2]; iv, 28 mg/m2) was 98.7 ± 23 h and the Tmax ([2]; iv, 28 mg/m2) was 0.5 h. The half-life ([2]; iv, 40 mg/m2) was 123 ± 40.8 h, the Tmax ([2]; iv, 40 mg/m2) was 1.05 h and the half-life ([2]; iv, 54 mg/m2) was 120 ± 28.5 h. It also gave a Tmax ([2]; iv, 54 mg/m2) of 0.76 h, a half-life ([2]; iv, 70 mg/m2) of 127 ± 18.8 h and a Tmax ([2]; iv, 70 mg/m2) of 1.02 h. The AUC(0-inf) ([2]; iv, 28 mg/m2) was 9550 ng·h/mL, the AUC(0-t) ([2]; iv, 28 mg/m2) was 6810 ng·h/mL and the Cmax ([2]; iv, 28 mg/m2) was 457 ± 101 ng/mL. For the same molecule, the clearance ([2]; iv, 28 mg/m2) was 79.8 mL/min, the Vd ([2]; iv, 28 mg/m2) was 646 ± 111 L and the AUC(0-inf) ([2]; iv, 40 mg/m2) was 11400 ng·h/mL. For the same molecule, the AUC(0-t) ([2]; iv, 40 mg/m2) was 6960 ng·h/mL, the Cmax ([2]; iv, 40 mg/m2) was 710 ± 42 ng/mL and the clearance ([2]; iv, 40 mg/m2) was 95.7 mL/min. For the same molecule, the Vd ([2]; iv, 40 mg/m2) was 980 ± 132 L, the AUC(0-inf) ([2]; iv, 54 mg/m2) was 12300 ng·h/mL and the AUC(0-t) ([2]; iv, 54 mg/m2) was 8880 ng·h/mL. It also gave a Cmax ([2]; iv, 54 mg/m2) of 1050 ng/mL, a clearance ([2]; iv, 54 mg/m2) of 121 mL/min and a Vd ([2]; iv, 54 mg/m2) of 1190 L. For the same molecule, the AUC(0-inf) ([2]; iv, 70 mg/m2) was 12600 ng·h/mL, the AUC(0-t) ([2]; iv, 70 mg/m2) was 8540 ng·h/mL and the Cmax ([2]; iv, 70 mg/m2) was 1100 ng/mL. For the same molecule, the clearance ([2]; iv, 70 mg/m2) was 143 mL/min, the Vd ([2]; iv, 70 mg/m2) was 1570 L and the “Dose dependence of AUClast in blood” value ([2]; increased with dose from 8 to 28 mg/m^2) was “saturated at higher dose levels; also recorded: saturated at higher doses”. The “Best overall response: Complete response” value (advanced solid tumors; 8 mg/m^2 (n = 3)) was 0 n, the “Best overall response: Partial response” value (advanced solid tumors; 8 mg/m^2 (n = 3)) was 0 n and the “Best overall response: Progressive disease” value (advanced solid tumors; 8 mg/m^2 (n = 3)) was 2 n. The “Best overall response: Stable disease” value (advanced solid tumors; 8 mg/m^2 (n = 3)) was 1 n, the “Best overall response: Unknown” value (advanced solid tumors; 8 mg/m^2 (n = 3)) was 0 n and the “Disease control rate (CR + PR + SD)” value (advanced solid tumors; 8 mg/m^2 (n = 3)) was 1 n. For the same molecule, the “Overall response rate (CR + PR)” value (advanced solid tumors; 8 mg/m^2 (n = 3)) was 0 n, the “Best overall response: Complete response” value (advanced solid tumors; 16 mg/m^2 (n = 3)) was 0 n and the “Best overall response: Partial response” value (advanced solid tumors; 16 mg/m^2 (n = 3)) was 0 n. The “Best overall response: Progressive disease” value (advanced solid tumors; 16 mg/m^2 (n = 3)) was 2 n, the “Best overall response: Stable disease” value (advanced solid tumors; 16 mg/m^2 (n = 3)) was 1 n and the “Best overall response: Unknown” value (advanced solid tumors; 16 mg/m^2 (n = 3)) was 0 n. The “Disease control rate (CR + PR + SD)” value (advanced solid tumors; 16 mg/m^2 (n = 3)) was 1 n, the “Overall response rate (CR + PR)” value (advanced solid tumors; 16 mg/m^2 (n = 3)) was 0 n and the “Best overall response: Complete response” value (advanced solid tumors; 22 mg/m^2 (n = 3)) was 0 n. The “Best overall response: Partial response” value (advanced solid tumors; 22 mg/m^2 (n = 3)) was 0 n, the “Best overall response: Progressive disease” value (advanced solid tumors; 22 mg/m^2 (n = 3)) was 3 n and the “Best overall response: Stable disease” value (advanced solid tumors; 22 mg/m^2 (n = 3)) was 0 n. For the same molecule, the “Best overall response: Unknown” value (advanced solid tumors; 22 mg/m^2 (n = 3)) was 0 n, the “Disease control rate (CR + PR + SD)” value (advanced solid tumors; 22 mg/m^2 (n = 3)) was 0 n and the “Overall response rate (CR + PR)” value (advanced solid tumors; 22 mg/m^2 (n = 3)) was 0 n. For the same molecule, the “Best overall response: Complete response” value (advanced solid tumors; 28 mg/m^2 (n = 5)) was 0 n, the “Best overall response: Partial response” value (advanced solid tumors; 28 mg/m^2 (n = 5)) was 0 n and the “Best overall response: Progressive disease” value (advanced solid tumors; 28 mg/m^2 (n = 5)) was 4 n. For the same molecule, the “Best overall response: Stable disease” value (advanced solid tumors; 28 mg/m^2 (n = 5)) was 1 n, the “Best overall response: Unknown” value (advanced solid tumors; 28 mg/m^2 (n = 5)) was 0 n and the “Disease control rate (CR + PR + SD)” value (advanced solid tumors; 28 mg/m^2 (n = 5)) was 1 n. The “Overall response rate (CR + PR)” value (advanced solid tumors; 28 mg/m^2 (n = 5)) was 0 n, the “Best overall response: Complete response” value (advanced solid tumors; 40 mg/m^2 (n = 3)) was 0 n and the “Best overall response: Partial response” value (advanced solid tumors; 40 mg/m^2 (n = 3)) was 0 n. For the same molecule, the “Best overall response: Progressive disease” value (advanced solid tumors; 40 mg/m^2 (n = 3)) was 2 n, the “Best overall response: Stable disease” value (advanced solid tumors; 40 mg/m^2 (n = 3)) was 1 n and the “Best overall response: Unknown” value (advanced solid tumors; 40 mg/m^2 (n = 3)) was 0 n. For the same molecule, the “Disease control rate (CR + PR + SD)” value (advanced solid tumors; 40 mg/m^2 (n = 3)) was 1 n, the “Overall response rate (CR + PR)” value (advanced solid tumors; 40 mg/m^2 (n = 3)) was 0 n and the “Best overall response: Complete response” value (advanced solid tumors; 54 mg/m^2 (n = 6)) was 0 n. The “Best overall response: Partial response” value (advanced solid tumors; 54 mg/m^2 (n = 6)) was 1 n, the “Best overall response: Progressive disease” value (advanced solid tumors; 54 mg/m^2 (n = 6)) was 3 n and the “Best overall response: Stable disease” value (advanced solid tumors; 54 mg/m^2 (n = 6)) was 1 n. For the same molecule, the “Best overall response: Unknown” value (advanced solid tumors; 54 mg/m^2 (n = 6)) was 1 n, the “Disease control rate (CR + PR + SD)” value (advanced solid tumors; 54 mg/m^2 (n = 6)) was 2 n and the “Overall response rate (CR + PR)” value (advanced solid tumors; 54 mg/m^2 (n = 6)) was 1 n. The “Best overall response: Complete response” value (advanced solid tumors; 70 mg/m^2 (n = 8)) was 0 n, the “Best overall response: Partial response” value (advanced solid tumors; 70 mg/m^2 (n = 8)) was 0 n and the “Best overall response: Progressive disease” value (advanced solid tumors; 70 mg/m^2 (n = 8)) was 3 n. For the same molecule, the “Best overall response: Stable disease” value (advanced solid tumors; 70 mg/m^2 (n = 8)) was 5 n, the “Best overall response: Unknown” value (advanced solid tumors; 70 mg/m^2 (n = 8)) was 0 n and the “Disease control rate (CR + PR + SD)” value (advanced solid tumors; 70 mg/m^2 (n = 8)) was 5 n. For the same molecule, the “Overall response rate (CR + PR)” value (advanced solid tumors; 70 mg/m^2 (n = 8)) was 0 n, the “Patients with best overall response of stable disease” value (advanced solid tumors; 70-mg/m^2 cohort, five out of the eight patients) was 63% and the “Best overall response: Complete response” value (advanced solid tumors; Total, all doses (N = 31)) was 0 n (%). The “Best overall response: Partial response” value (advanced solid tumors; Total, all doses (N = 31)) was 1 (3) n (%), the “Best overall response: Progressive disease” value (advanced solid tumors; Total, all doses (N = 31)) was 19 (61) n (%) and the “Best overall response: Stable disease” value (advanced solid tumors; Total, all doses (N = 31)) was 10 (32) n (%). For the same molecule, the “Best overall response: Unknown” value (advanced solid tumors; Total, all doses (N = 31)) was 1 (3) n (%), the “Disease control rate (CR + PR + SD)” value (advanced solid tumors; Total, all doses (N = 31)) was 11 (36) n (%) and the “Overall response rate (CR + PR)” value (advanced solid tumors; Total, all doses (N = 31)) was 1 (3) n (%). The “Disease control rate (DCR; PR + SD)” value (advanced solid tumors; across all dose levels) was 36%, the Complete response (advanced solid tumors; all doses) was “no patients achieved a complete response” and the “Patients with confirmed partial response” value (advanced solid tumors; all doses (N = 31), one patient) was 3%. For the same molecule, the “Patients with best overall response of stable disease” value (advanced solid tumors; all doses (N = 31), ten patients, SD lasting ≥8 weeks) was 32% and the “Duration of confirmed partial response” value (advanced solid tumors; one patient, rectal carcinoid tumor with lung metastatic lesions, 54 mg/m^2) was over 7 months.
